US20220195487A1, “Method for Measuring Inhibition of Bacteria by Antibacterial Drug, and Bacterial Counting Device and Method Thereof” (BEIJING XINJI JINNUO MEDICAL EQUIPMENT CO.,LTD., priority 2019, published 2022)
Values after ≈ are worked out from the molar mass of the structure shown.

Tests used:
Assay type in all cases: cell-based
Acinetobacter baumannii [1] = assay: rapid drug susceptibility testing of living cells (live bacteria counting, 2 h); conditions: for Living cell counts: 2 h
Procedure: (§1) 1.2.1 Preparation of bacterial strains: in accordance with the requirements of the CLSI standards, pick each fresh strains within 24 h with a turbidity of 0.5 McFarland units in the column of strain name in Table 7.
(§2) 1.2.2 Inoculation: take 100 μL of each bacterial suspension with a turbidity of 0.5 McFarland units and dispense to a 48-well plate with pre-configured gradient antibiotics, 500 μL dispensed in each well.
(§3) 1.2.3 Incubation and detection: incubate for 2 h at 37° C., and perform live bacteria counting. Record the 24 h routine susceptibility results for comparative analysis.

Acinetobacter baumannii [2] = assay: 2 h susceptibility by resistance bacterial counter; conditions: Example 3, resistance counting, 2 h at 37° C., 60% of the positive count value as threshold
Procedure: (§4) 2.2.1 Preparation of bacterial strains: In accordance with the requirements of the CLSI standards, pick each fresh strains within 24 h with a turbidity of 0.5 McFarland units in the column of strain name in Table 5;
(§5) 2.2.2 Inoculation: Take 100 μL of each bacterial suspension with a turbidity of 0.5 McFarland units and dispense to a 48-well plate with pre-configured gradient antibiotics, 500 μL dispensed in each well;
(§6) 2.2.3 Incubation and detection: Incubate for 2 h at 37° C., and measure with a resistance bacterial counter. Adjust the instrument to its best sensitivity and then count bacteria. Record the 24 h routine susceptibility results for comparative analysis.

Acinetobacter baumannii [3] = assay: 24 h routine (conventional) drug susceptibility testing by visual observation
[4] = system: Pseudomonas aeruginosa (ATCC27853); assay: as above
[5] = system: Pseudomonas aeruginosa (ATCC27853); assay: rapid drug susceptibility testing of living cells (live bacteria counting, 2 h); conditions: for Living cell counts: 2 h
Procedure: as §1, §2, §3

[6] = system: Pseudomonas aeruginosa (ATCC27853); assay: 2 h susceptibility by resistance bacterial counter; conditions: Example 3, resistance counting, 2 h at 37° C., 60% of the positive count value as threshold
Procedure: as §4, §5, §6

[7] = system: Escherichia coli ATCC 25922; assay: broth dilution drug susceptibility testing method (CLSI); conditions: ATCC25922, read-out: minimum inhibitory concentration
Procedure: (§7) In addition, the bacteria in this example were also subjected to three other methods of drug susceptibility testing, namely, measuring the inhibition of Escherichia coli ATCC 25922 in this example by ampicillin according to the operating manual of the VITEK microbial identification susceptibility system from Merieux, France, with a minimum inhibitory concentration of 4 μg/mL (micrograms per milliliter); measuring the inhibition of Escherichia coli ATCC 25922 in this example by ampicillin according to the Etest method, as detailed in the operating manual of the Etest kit from Thermo Fisher, USA, with a minimum inhibitory concentration of 2 μg/mL; and measuring the inhibition of Escherichia coli ATCC 25922 in this example by ampicillin according to broth dilution drug susceptibility testing method as specified in the broth dilution susceptibility standards by the American Clinical and Laboratory Standards Institute, with a minimum inhibitory concentration of 4 μg/mL. It can be seen that their results are all consistent and sensitive.

[8] = system: Escherichia coli ATCC 25922; assay: rapid susceptibility test by resistance counting method (Coulter principle)
Procedure: A method for measuring inhibition of Escherichia coli ATCC 25922 by ampicillin (by the resistance counting method).
The standard strain ATCC 25922 Escherichia coli was transferred for use later and incubated at 37° C. for 18 hours.
Ten of the drug susceptibility testing tubes (or cups) contained the required antibiotics of concentrations via doubling dilution (refer to American CLSI standards for concentrations for different drugs); the eleventh tube without antibiotics is used as a positive control (PC); the twelfth tube without bacterial suspension is used as a negative control (NC).
Prepare the bacterial strain and triturate on the wall of a vial with Mueller Hinton broth (MH for antibiotics susceptibility testing) to mix evenly, close the cap and measure the turbidity with a nephelometer (BD PhoenixSpec Nephelometer), the turbidity being 0.5 McFarland units, and set aside to be used later.
Inoculate the bacteria to be tested at an inoculum concentration specified in the CLSI (American Clinical and Laboratory Standards Institute) method for broth dilution drug susceptibility testing, and incubate in an incubator at 37° C.
Preparation of bacterial suspension: pick a spare colony to prepare bacterial suspension, the concentration of the bacterial suspension being 0.5 McFarland units. Add the colony suspension to (MH) broths containing different concentrations of various antibiotics and the content of bacteria in each tube after inoculation is 1×10∧4 cfu/mL to 5×10∧7 cfu/mL, optimally 5×10∧6 cfu/mL (colony forming units/mL), i.e. optimally 5×10∧6 colony forming units per mL.
Incubate in an incubator at 37° C., perform bacterial counting at 0 min, 10 min, 30 min, 60 min, 90 min and 120 min respectively by the resistance counting method (OMEC (Zhuhai) RC-3000 resistance (Coulter) particle counter). Measure twice, take the average value and record the data.
There were 12 tubes for testing, the eleventh tube being the positive control (PC), the twelfth tube being the negative control (NC) and the other 10 tubes being the test tubes. At each detection time point, measurements were carried out for all 12 tubes.

[9] = system: Escherichia coli ATCC 25922; assay: Etest method; conditions: ATCC25922, read-out: minimum inhibitory concentration
Procedure: as §7

[10] = system: Escherichia coli ATCC 25922; assay: VITEK microbial identification susceptibility system; conditions: ATCC25922, read-out: minimum inhibitory concentration
Procedure: as §7

[11] = system: Enterococcus faecalis (ATCC29212); assay: 24 h routine (conventional) drug susceptibility testing by visual observation
[12] = system: Enterococcus faecalis (ATCC29212); assay: rapid drug susceptibility testing of living cells (live bacteria counting, 2 h); conditions: for Living cell counts: 2 h
Procedure: as §1, §2, §3

[13] = system: Enterococcus faecalis (ATCC29212); assay: 2 h susceptibility by resistance bacterial counter; conditions: Example 3, resistance counting, 2 h at 37° C., 60% of the positive count value as threshold
Procedure: as §4, §5, §6

Klebsiella pneumoniae [14] = assay: rapid drug susceptibility testing of living cells (live bacteria counting, 2 h); conditions: for Living cell counts: 2 h
Procedure: as §1, §2, §3

Klebsiella pneumoniae [15] = assay: 24 h routine (conventional) drug susceptibility testing by visual observation
Klebsiella pneumoniae [16] = assay: 2 h susceptibility by resistance bacterial counter; conditions: Example 3, resistance counting, 2 h at 37° C., 60% of the positive count value as threshold
Procedure: as §4, §5, §6

[17] = Example 4, live bacteria counting, 2 h at 37° C.
[18] = Example 3, 24 h routine susceptibility
[19] = Example 4, 24 h routine susceptibility

## C[C@@H](O)[C@H]1C(=O)N2C(C(=O)O)=C(S[C@@H]3CN[C@H](C(=O)N(C)C)C3)[C@H](C)[C@H]12 [Meropenem]
Acinetobacter baumannii [1]; 0.03 μg/mL
  Living cell counts: 7959 cells/μL
Acinetobacter baumannii [1]; 0.06 μg/mL
  Living cell counts: 6495 cells/μL
Acinetobacter baumannii [1]; 0.12 μg/mL
  Living cell counts: 1574 cells/μL
Acinetobacter baumannii [1]; 0.25 μg/mL
  Living cell counts: 1570 cells/μL
Acinetobacter baumannii [1]; 0.5 μg/mL
  Living cell counts: 1514 cells/μL
Acinetobacter baumannii [1]; 1 μg/mL
  Living cell counts: 1490 cells/μL
Acinetobacter baumannii [1]; 2 μg/mL
  Living cell counts: 1479 cells/μL
Acinetobacter baumannii [1]; 4 μg/mL
  Living cell counts: 1561 cells/μL
Acinetobacter baumannii [1]; 8 μg/mL
  Living cell counts: 1003 cells/μL
Acinetobacter baumannii [1]; 16 μg/mL
  Living cell counts: 979 cells/μL
Acinetobacter baumannii [1]; [17]
  MIC, rapid drug susceptibility testing of living cells: 0.12 µg/mL
Acinetobacter baumannii [2]
  2 hMIC: 0.12
Acinetobacter baumannii [3]; [18]
  24 hMIC: 0.12
Acinetobacter baumannii [3]; [19]
  MIC, conventional drug susceptibility testing: 0.12 µg/mL (≈ 0.313 µM)

## CC(C)(O/N=C(\C(=O)N[C@@H]1C(=O)N2C(C(=O)[O-])=C(C[n+]3ccccc3)CS[C@H]12)c1csc(N)n1)C(=O)O [Ceftazidime]
[4]; [18]
  24 hMIC: 2
[4]; [19]
  MIC, conventional drug susceptibility testing: 2 µg/mL (≈ 3.66 µM)
[5]; 0.03 μg/mL
  Living cell counts: 1509 cells/μL
[5]; 0.06 μg/mL
  Living cell counts: 1478 cells/μL
[5]; 0.12 μg/mL
  Living cell counts: 1513 cells/μL
[5]; 0.25 μg/mL
  Living cell counts: 1480 cells/μL
[5]; 0.5 μg/mL
  Living cell counts: 1235 cells/μL
[5]; 1 μg/mL
  Living cell counts: 1090 cells/μL
[5]; 2 μg/mL
  Living cell counts: 308 cells/μL
[5]; 4 μg/mL
  Living cell counts: 297 cells/μL
[5]; 8 μg/mL
  Living cell counts: 202 cells/μL
[5]; 16 μg/mL
  Living cell counts: 209 cells/μL
[5]; [17]
  MIC, rapid drug susceptibility testing of living cells: 2 µg/mL
[6]
  2 hMIC: 4

## CC1(C)S[C@@H]2[C@H](NC(=O)[C@H](N)c3ccccc3)C(=O)N2[C@H]1C(=O)O [ampicillin]
[7]
  MIC: 4 µg/mL (≈ 11.4 µM)
[8]; 0 min, 0.5 μg/mL
  bacterial counts: 210 cells/μL
[8]; 0 min, 1 μg/mL
  bacterial counts: 230 cells/μL
[8]; 0 min, 2 μg/mL
  bacterial counts: 208 cells/μL
[8]; 0 min, 4 μg/mL
  bacterial counts: 206 cells/μL
[8]; 0 min, 8 μg/mL
  bacterial counts: 204 cells/μL
[8]; 0 min, 16 μg/mL
  bacterial counts: 208 cells/μL
[8]; 0 min, 32 μg/mL
  bacterial counts: 210 cells/μL
[8]; 0 min, 64 μg/mL
  bacterial counts: 220 cells/μL
[8]; 0 min, 128 μg/mL
  bacterial counts: 212 cells/μL
[8]; 0 min, 256 μg/mL
  bacterial counts: 207 cells/μL
[8]; 60 min, 0.5 μg/mL
  bacterial counts: 807 cells/μL
[8]; 60 min, 1 μg/mL
  bacterial counts: 789 cells/μL
[8]; 60 min, 2 μg/mL
  bacterial counts: 811 cells/μL
[8]; 60 min, 4 μg/mL
  bacterial counts: 304 cells/μL
[8]; 60 min, 8 μg/mL
  bacterial counts: 250 cells/μL
[8]; 60 min, 16 μg/mL
  bacterial counts: 264 cells/μL
[8]; 60 min, 32 μg/mL
  bacterial counts: 290 cells/μL
[8]; 60 min, 64 μg/mL
  bacterial counts: 278 cells/μL
[8]; 60 min, 128 μg/mL
  bacterial counts: 214 cells/μL
[8]; 60 min, 256 μg/mL
  bacterial counts: 350 cells/μL
[8]; 90 min, 0.5 μg/mL
  bacterial counts: 1540 cells/μL
[8]; 90 min, 1 μg/mL
  bacterial counts: 1469 cells/μL
[8]; 90 min, 2 μg/mL
  bacterial counts: 1511 cells/μL
[8]; 90 min, 4 μg/mL
  bacterial counts: 432 cells/μL
[8]; 90 min, 8 μg/mL
  bacterial counts: 502 cells/μL
[8]; 90 min, 16 μg/mL
  bacterial counts: 500 cells/μL
[8]; 90 min, 32 μg/mL
  bacterial counts: 491 cells/μL
[8]; 90 min, 64 μg/mL
  bacterial counts: 489 cells/μL
[8]; 90 min, 128 μg/mL
  bacterial counts: 367 cells/μL
[8]; 90 min, 256 μg/mL
  bacterial counts: 460 cells/μL
[8]; 120 min, 0.5 μg/mL
  bacterial counts: 2534 cells/μL
[8]; 120 min, 1 μg/mL
  bacterial counts: 2456 cells/μL
[8]; 120 min, 2 μg/mL
  bacterial counts: 2463 cells/μL
[8]; 120 min, 4 μg/mL
  bacterial counts: 590 cells/μL
[8]; 120 min, 8 μg/mL
  bacterial counts: 524 cells/μL
[8]; 120 min, 16 μg/mL
  bacterial counts: 560 cells/μL
[8]; 120 min, 32 μg/mL
  bacterial counts: 578 cells/μL
[8]; 120 min, 64 μg/mL
  bacterial counts: 641 cells/μL
[8]; 120 min, 128 μg/mL
  bacterial counts: 498 cells/μL
[8]; 120 min, 256 μg/mL
  bacterial counts: 512 cells/μL
[8]; ATCC25922, resistance method, Escherichia coli ATCC 25922, read-out: minimum inhibitory concentration (MIC)
  MIC: 4 µg/mL (≈ 11.4 µM)
[9]
  MIC: 2 µg/mL (≈ 5.72 µM)
[10]
  MIC: 4 µg/mL (≈ 11.4 µM)

## Penicillin
[11]; [18]
  24 hMIC: 2
[11]; [19]
  MIC, conventional drug susceptibility testing: 2 µg/mL
[12]; 0.03 μg/mL
  Living cell counts: 13789 cells/μL
[12]; 0.06 μg/mL
  Living cell counts: 13679 cells/μL
[12]; 0.12 μg/mL
  Living cell counts: 12958 cells/μL
[12]; 0.25 μg/mL
  Living cell counts: 12088 cells/μL
[12]; 0.5 μg/mL
  Living cell counts: 11105 cells/μL
[12]; 1 μg/mL
  Living cell counts: 3085 cells/μL
[12]; 2 μg/mL
  Living cell counts: 1076 cells/μL
[12]; 4 μg/mL
  Living cell counts: 798 cells/μL
[12]; 8 μg/mL
  Living cell counts: 683 cells/μL
[12]; 16 μg/mL
  Living cell counts: 659 cells/μL
[12]; [17]
  MIC, rapid drug susceptibility testing of living cells: 1 µg/mL
[13]
  2 hMIC: 1

## Gentamicin
Klebsiella pneumoniae [14]; 0.03 μg/mL
  Living cell counts: 11879 cells/μL
Klebsiella pneumoniae [14]; 0.06 μg/mL
  Living cell counts: 11426 cells/μL
Klebsiella pneumoniae [14]; 0.12 μg/mL
  Living cell counts: 10167 cells/μL
Klebsiella pneumoniae [14]; 0.25 μg/mL
  Living cell counts: 10278 cells/μL
Klebsiella pneumoniae [14]; 0.5 μg/mL
  Living cell counts: 10971 cells/μL
Klebsiella pneumoniae [14]; 1 μg/mL
  Living cell counts: 10654 cells/μL
Klebsiella pneumoniae [14]; 2 μg/mL
  Living cell counts: 10549 cells/μL
Klebsiella pneumoniae [14]; 4 μg/mL
  Living cell counts: 10876 cells/μL
Klebsiella pneumoniae [14]; 8 μg/mL
  Living cell counts: 1876 cells/μL
Klebsiella pneumoniae [14]; 16 μg/mL
  Living cell counts: 880 cells/μL
Klebsiella pneumoniae [14]; [17]
  MIC, rapid drug susceptibility testing of living cells: 8 µg/mL
Klebsiella pneumoniae [15]; [18]
  24 hMIC: 8
Klebsiella pneumoniae [15]; [19]
  MIC, conventional drug susceptibility testing: 8 µg/mL
Klebsiella pneumoniae [16]
  2 hMIC: 4
